Assay results: patent US12059422B2 (MEI Pharma, Inc., priority 2011, dated 2024)

Key:
PI3K beta = target: T1, PI3K beta (Homo sapiens, UniProt P42338); test: Luciferase-based luminescence assay (ADP Glo), PI3K beta enzymatic activity; format: biochemical; details: for IC50: inhibition of enzymatic activity, ADP Glo, 25 μM ATP, read-out: IC50 p110β; for α/β ratio: ratio of enzymatic IC50 values, Table 1
T1 construct: purchased Millipore, Billerica, MA, USA
How it was run: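 Final enzyme 4.8 nM PI3K beta or 7.6 nM PI3K gamma, with 50 μM PIP2 and 25 μM ATP, 1 h in HEPES pH 7.5 buffer with MgCl2, EGTA, NaCl, CHAPS and DTT. ADP formed measured by ADP-Glo luminescence; IC50 from 10-point curve fits.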

PI3Kβ = target: T2, PI3Kβ (Homo sapiens, UniProt P42338); test: ELISA assay for PI3Kβ: in-cell ELISA, phosphorylation of AKT (Ser473) in PC-3 cells; format: cell-based; details: for IC50: cellular, pAKT (Ser473), PC-3 cells, LPA stimulation, read-out: IC50 p110β; for α/β ratio: ratio of cellular IC50 values, Table 2
T2 construct: endogenous in cells; host or cells: PC-3 (ATCC #CRL-1435)
T2 sequence (P42338 whole entry): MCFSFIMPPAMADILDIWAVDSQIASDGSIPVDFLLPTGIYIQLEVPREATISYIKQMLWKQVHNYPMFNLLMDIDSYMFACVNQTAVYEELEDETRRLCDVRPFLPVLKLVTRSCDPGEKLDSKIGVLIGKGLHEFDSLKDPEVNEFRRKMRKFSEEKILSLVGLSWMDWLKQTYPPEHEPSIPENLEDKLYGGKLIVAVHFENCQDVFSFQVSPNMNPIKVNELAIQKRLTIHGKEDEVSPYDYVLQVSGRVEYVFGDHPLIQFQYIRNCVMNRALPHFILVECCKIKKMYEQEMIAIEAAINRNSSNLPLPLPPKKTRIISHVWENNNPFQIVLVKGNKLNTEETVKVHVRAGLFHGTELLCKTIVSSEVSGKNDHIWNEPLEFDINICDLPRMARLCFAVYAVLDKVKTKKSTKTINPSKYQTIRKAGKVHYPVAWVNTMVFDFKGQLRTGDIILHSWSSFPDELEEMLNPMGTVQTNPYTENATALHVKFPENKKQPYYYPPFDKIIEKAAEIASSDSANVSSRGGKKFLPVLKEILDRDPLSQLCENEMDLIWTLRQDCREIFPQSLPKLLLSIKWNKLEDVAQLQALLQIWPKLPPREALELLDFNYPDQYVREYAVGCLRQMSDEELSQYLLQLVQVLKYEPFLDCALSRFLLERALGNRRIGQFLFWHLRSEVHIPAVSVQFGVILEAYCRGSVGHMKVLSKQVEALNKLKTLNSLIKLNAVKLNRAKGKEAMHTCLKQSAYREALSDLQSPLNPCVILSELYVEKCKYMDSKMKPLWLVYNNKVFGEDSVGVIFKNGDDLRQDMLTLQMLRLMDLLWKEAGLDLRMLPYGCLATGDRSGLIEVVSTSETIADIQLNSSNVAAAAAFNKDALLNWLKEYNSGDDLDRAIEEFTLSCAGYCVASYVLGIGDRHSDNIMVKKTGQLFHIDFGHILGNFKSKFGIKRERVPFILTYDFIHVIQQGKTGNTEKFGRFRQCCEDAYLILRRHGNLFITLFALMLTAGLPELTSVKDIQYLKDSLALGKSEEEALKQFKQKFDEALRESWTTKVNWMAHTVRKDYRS
T2 sequence (P27986 whole entry partner): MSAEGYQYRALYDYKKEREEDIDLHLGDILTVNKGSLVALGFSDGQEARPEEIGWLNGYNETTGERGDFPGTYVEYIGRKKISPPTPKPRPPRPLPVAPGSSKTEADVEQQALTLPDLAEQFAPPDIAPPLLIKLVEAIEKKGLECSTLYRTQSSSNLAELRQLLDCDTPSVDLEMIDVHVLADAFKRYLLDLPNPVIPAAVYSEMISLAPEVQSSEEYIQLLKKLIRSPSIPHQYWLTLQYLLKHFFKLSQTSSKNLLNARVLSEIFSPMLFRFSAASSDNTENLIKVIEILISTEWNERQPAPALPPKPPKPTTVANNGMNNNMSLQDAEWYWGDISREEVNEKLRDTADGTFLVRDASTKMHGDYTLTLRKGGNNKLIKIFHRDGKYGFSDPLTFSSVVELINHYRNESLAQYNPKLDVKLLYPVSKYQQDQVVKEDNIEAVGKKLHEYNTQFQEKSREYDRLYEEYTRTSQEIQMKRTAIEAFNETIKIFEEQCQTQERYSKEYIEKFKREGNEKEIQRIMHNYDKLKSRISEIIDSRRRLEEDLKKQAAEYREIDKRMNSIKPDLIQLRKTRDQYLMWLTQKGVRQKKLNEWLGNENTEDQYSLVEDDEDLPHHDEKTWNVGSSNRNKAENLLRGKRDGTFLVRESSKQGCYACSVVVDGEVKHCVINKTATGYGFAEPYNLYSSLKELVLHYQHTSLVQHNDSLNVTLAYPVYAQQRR
Description: Cellular PI3Kβ activity was determined by measuring the phosphorylation of AKT (Ser473) using an in-cell ELISA assay. PC-3 (prostate carcinoma) cells were obtained from ATCC (ATCC #CRL-1435). Growth medium was DMEM (CellGro #CV-10-013-CV) supplemented with 10% fetal bovine serum, 100 IU/mL penicillin, 100 μg/mL streptomycin, and 1×MEM non-essential amino acids. Phosphate buffered saline (PBS) contained 2.7 M NaCl, 54 mM KCl, 86 mM […] (dibasic, anhydrous), 28 mM […] (monobasic, anhydrous), pH 7.2, 10× stimulation mixture contained 50 μM LPA (Cayman #62215) diluted in serum-free DMEM medium (CellGro #CV-10-013-CV). Compounds for testing were dissolved and serially diluted in 100% DMSO (total of 10 concentrations), then diluted in serum-free DMEM to 2× final assay concentration. 2× fixative solution contained 8% formaldehyde (Amresco #M134) diluted in PBS. Permeabilization solution contained PBS supplemented with 0.1% Triton X-100. Blocking buffer was obtained from LiCor (LiCor #927-40000). Wash buffer contained PBS supplemented with 0.1% Tween-20. Primary antibody solution was rabbit anti-pAKT^S473 monoclonal antibody (Cell Signaling #4060) and mouse anti-total S6 (Santa Cruz #74459) diluted 1:500 and 1:2000, respectively, in blocking buffer. Secondary antibody solution was IRDye 800CW-conjugated goat anti-rabbit IgG (LiCor #926-32211) and IRDye 680LT-conjugated goat anti-mouse IgG (LiCor #926-68020) diluted 1:2000 and 1:1000, respectively, in blocking buffer.
PC-3 cells were subcultured in growth medium and seeded into flat, clear bottom, 96-well plates (Corning #3904) at 16000 cells/well, then incubated overnight in a 37° C., 5% CO2 incubator. Growth medium in plates was replaced with 100 μL/well serum-free DMEM and incubated overnight in a 37° C., 5% CO2 incubator. 50 μL/well of fresh serum-free DMEM was added to plates. Compound treatment was performed by adding 50 μL/well of 2× compound mixture to plates and incubating for 2 hrs at 37° C., 5% CO2, after which 11 μL/well of 10× stimulation mixture was added and plates were incubated for 10 min at 37° C., 5% CO2. Fixation was performed by adding 110 μL/well of 2× fixative solution to plates and incubating for 20 min at room temperature. Permeabilization was performed by replacing fixation solution with 150 μL/well permeabilization solution and incubating for 10 min at room temperature. Permeabilization was repeated (for a total of 2 times). Permeabilization solution was replaced with 100 μL/well blocking buffer and plates were incubated for 1 hr at room temperature, after which 100 μL/well of primary antibody solution was added and plates were incubated overnight at 4° C. Plates were washed with wash buffer, after which 100 μL/well of secondary antibody solution was added to the plates and incubated in the dark for 1 hr at room temperature. Plates were washed with wash buffer, followed by awash with PBS. After completely removing PBS, plates were scanned on the Licor Odyssey Imager. Images quantified using Licor Odyssey application software. IC50 values were determined by curve fitting using a Collaborative Drug Discovery database (www.collaborativedrug.com).

T1 sequence (P42338 whole entry, species assumed): as the sequence (P42338 whole entry) above
T1 sequence (P27986 whole entry partner, species assumed): as the sequence (P27986 whole entry partner) above

Row | SMILES | IC50 (PI3K beta) | α/β ratio (PI3K beta) | IC50 (PI3Kβ) | α/β ratio (PI3Kβ)
1 | CC(C)(Cc1ccccc1-c1cn[nH]c1)Nc1nc(N2CCOCC2)nc(-n2c(C(F)F)nc3ccccc32)n1 [Compound A44, 4-(2-(difluoromethyl)-1H-benzo[d]imidazol-1-yl)-N-(1-(2-(1H-pyrazol-4-yl)phenyl)-2-methylpropan-2-yl)-6-morpholino-1,3,5-triazin-2-amine] | ≤ 100 nM | A’ | ≤ 100 nM | A’
2 | Cn1cc(-c2ccccc2CC(C)(C)Nc2nc(N3CCOCC3)nc(-n3c(C(F)F)nc4ccccc43)n2)cn1 [Compound A45, 4-(2-(difluoromethyl)-1H-benzo[d]imidazol-1-yl)-N-(2-methyl-1-(2-(1-methyl-1H-pyrazol-4-yl)phenyl)propan-2-yl)-6-morpholino-1,3,5-triazin-2-amine] | ≤ 100 nM | A’ | ≤ 100 nM | A’
3 | Cc1cccc(CC(C)(C)Nc2nc(N3CCOCC3)nc(-n3c(C(F)F)nc4ccccc43)n2)c1 [Compound A49, 4-(2-(difluoromethyl)-1H-benzo[d]imidazol-1-yl)-N-(2-methyl-1-m-tolylpropan-2-yl)-6-morpholino-1,3,5-triazin-2-amine] | ≤ 100 nM | A’ | ≤ 100 nM | B’
4 | COc1cc(CC(C)(C)Nc2nc(N3CCOCC3)nc(-n3c(C(F)F)nc4ccccc43)n2)ccc1F [Compound A50, 4-(2-(difluoromethyl)-1H-benzo[d]imidazol-1-yl)-N-(1-(4-fluoro-3-methoxyphenyl)-2-methylpropan-2-yl)-6-morpholino-1,3,5-triazin-2-amine] | ≤ 100 nM | B’ | ≤ 100 nM | B’
5 | CC(C)(Cc1ccc(F)cc1F)Nc1nc(N2CCOCC2)nc(-n2c(C(F)F)nc3ccccc32)n1 [Compound A51, 4-(2-(difluoromethyl)-1H-benzo[d]imidazol-1-yl)-N-(1-(2,4-difluorophenyl)-2-methylpropan-2-yl)-6-morpholino-1,3,5-triazin-2-amine] | > 500 nM | D’ | 100 to 200 nM | C’
6 | CC(C)(Cc1c(F)cccc1F)Nc1nc(N2CCOCC2)nc(-n2c(C(F)F)nc3ccccc32)n1 [Compound A52, 4-(2-(difluoromethyl)-1H-benzo[d]imidazol-1-yl)-N-(1-(2,6-difluorophenyl)-2-methylpropan-2-yl)-6-morpholino-1,3,5-triazin-2-amine] | > 500 nM | D’ | ≤ 100 nM | C’
7 | CC(C)(Cc1ccccc1-c1ccccc1Cl)Nc1nc(N2CCOCC2)nc(-n2c(C(F)F)nc3ccccc32)n1 [Compound A61, 4-(2-(difluoromethyl)-1H-benzo[d]imidazol-1-yl)-N-(1-(6′-chlorobiphenyl-2-yl)-2-methylpropan-2-yl)-6-morpholino-1,3,5-triazin-2-amine] | ≤ 100 nM | A’ | 100 to 200 nM | A’
8 | CC(C)(Cc1ccccc1-c1cccnc1F)Nc1nc(N2CCOCC2)nc(-n2c(C(F)F)nc3ccccc32)n1 [Compound A62] | > 500 nM | D’ | ≤ 100 nM | A’
9 | CC(C)(Cc1ccccc1-c1cccc(CN2CCOCC2)c1)Nc1nc(N2CCOCC2)nc(-n2c(C(F)F)nc3ccccc32)n1 [Compound A65, 4-(2-(difluoromethyl)-1H-benzo[d]imidazol-1-yl)-N-(2-methyl-1-(3′-(morpholinomethyl)biphenyl-2-yl)propan-2-yl)-6-morpholino-1,3,5-triazin-2-amine] | ≤ 100 nM | A’ | ≤ 100 nM | A’
10 | COc1cccc(-c2ccccc2CC(C)(C)Nc2nc(N3CCOCC3)nc(-n3c(C(F)F)nc4ccccc43)n2)c1 [Compound A66, 4-(2-(difluoromethyl)-1H-benzo[d]imidazol-1-yl)-N-(1-(3′-methoxybiphenyl-2-yl)-2-methylpropan-2-yl)-6-morpholino-1,3,5-triazin-2-amine] | > 500 nM | D’ | 100 to 200 nM | A’
11 | COc1ccc(-c2ccccc2CC(C)(C)Nc2nc(N3CCOCC3)nc(-n3c(C(F)F)nc4ccccc43)n2)cc1 [Compound A67, 4-(2-(difluoromethyl)-1H-benzo[d]imidazol-1-yl)-N-(1-(4′-methoxybiphenyl-2-yl)-2-methylpropan-2-yl)-6-morpholino-1,3,5-triazin-2-amine] | 200 to 500 nM | D’ | 200 to 500 nM | A’
12 | CC(C)(Cc1ccccc1C1CCNCC1)Nc1nc(N2CCOCC2)nc(-n2c(C(F)F)nc3ccccc32)n1 [Compound A68, 4-(2-(difluoromethyl)-1H-benzo[d]imidazol-1-yl)-N-(2-methyl-1-(2-(piperidin-4-yl)phenyl)propan-2-yl)-6-morpholino-1,3,5-triazin-2-amine] | > 500 nM | D’ | ≤ 100 nM | A’

The remaining lines, values ahead:

Row | IC50 (PI3K beta) | α/β ratio (PI3K beta) | IC50 (PI3Kβ) | α/β ratio (PI3Kβ) | SMILES
13 | ≤ 100 nM | A’ | ≤ 100 nM | A’ | Cn1nccc1-c1ccccc1CC(C)(C)Nc1nc(N2CCOCC2)nc(-n2c(C(F)F)nc3ccccc32)n1 [Compound A46, 4-(2-(difluoromethyl)-1H-benzo[d]imidazol-1-yl)-N-(2-methyl-1-(2-(1-methyl-1H-pyrazol-5-yl)phenyl)propan-2-yl)-6-morpholino-1,3,5-triazin-2-amine]
14 | 200 to 500 nM | C’ | 100 to 200 nM | A’ | CC(C)(Cc1ccccc1-c1ccccc1F)Nc1nc(N2CCOCC2)nc(-n2c(C(F)F)nc3ccccc32)n1 [Compound A59, 4-(2-(difluoromethyl)-1H-benzo[d]imidazol-1-yl)-N-(1-(2′-fluorobiphenyl-2-yl)-2-methylpropan-2-yl)-6-morpholino-1,3,5-triazin-2-amine]
15 | ≤ 100 nM | A’ | 200 to 500 nM | A’ | Cc1ccccc1-c1ccccc1CC(C)(C)Nc1nc(N2CCOCC2)nc(-n2c(C(F)F)nc3ccccc32)n1 [Compound A60, 4-(2-(difluoromethyl)-1H-benzo[d]imidazol-1-yl)-N-(2-methyl-1-(2′-methylbiphenyl-2-yl)propan-2-yl)-6-morpholino-1,3,5-triazin-2-amine]
16 | ≤ 100 nM | D’ | ≤ 100 nM | A’ | CC(C)(Cc1ccccc1-c1cncnc1)Nc1nc(N2CCOCC2)nc(-n2c(C(F)F)nc3ccccc32)n1 [Compound A63, 4-(2-(difluoromethyl)-1H-benzo[d]imidazol-1-yl)-N-(2-methyl-1-(2-(pyrimidin-5-yl)phenyl)propan-2-yl)-6-morpholino-1,3,5-triazin-2-amine]
17 | ≤ 100 nM | A’ | ≤ 100 nM | A’ | CN1CCN(c2cc(-c3ccccc3CC(C)(C)Nc3nc(N4CCOCC4)nc(-n4c(C(F)F)nc5ccccc54)n3)ccn2)CC1 [Compound A64, 4-(2-(difluoromethyl)-1H-benzo[d]imidazol-1-yl)-N-(2-methyl-1-(2-(2-(4-methylpiperazin-1-yl)pyridin-4-yl)phenyl)propan-2-yl)-6-morpholino-1,3,5-triazin-2-amine]
